Measurements: patent US8404664B2, “Phosphonated Rifamycins and uses thereof for the prevention and treatment of bone and joint infections” (Targanta Therapeutics, Inc., priority 2005, dated 2013)
Values after ≈ are worked out from the molar mass of the structure shown.

Experiments:
[1] = Regeneration of drug from bone powder-bound prodrug; type: in vitro ADME; conditions: for % Conversion of bone-bound prodrug to parent drug: 24 h incubation, 37° C.; for Impact of the medium on the rate of regeneration of parent drug (in words): serum compared to PBS
Description: Amounts of parent drug “regenerated” from the phosphonated prodrug were measured as follows. Washed bone powder-bound prodrugs from the above experiment were resuspended in 400 μL PBS+2% DMSO or in 400 μL 50% (v/v in PBS+2% DMSO) human or rat serum. The suspension was incubated overnight at 37° C., centrifuged at 13,000 rpm for 2 min and the supernatant was recovered. The amount of regenerated parent drug in the supernatant was determined by measurements using the microbiological assay that was previously described for the prodrugs themselves. The amount of prodrug was deduced from standard curves of known amounts of parent drug that were used as reference for each experiment.

[2] = tested on: S. aureus ATCC 13709 Novobiocin resistant mutant (bone infection); assay: Prophylactic efficacy in rat model of S. aureus bone infection; type: in vivo
Description: Specifically, a spontaneous Novobiocin resistant mutant strain of S. aureus ATCC 13709 (a clinical osteomyelitis isolate), was grown overnight at 37° C. in brain heart infusion broth (BHIB). After 16 h of growth, cells were subcultured into fresh BHIB and incubated for 4 to 5 h at 37° C. The cells were washed twice with phosphate-buffered saline (PBS) and resuspended in BHIB supplemented with 10% (vol./vol.) fetal bovine serum at a density of approximately 10^10 colony forming units (CFU)/ml (based upon turbidimetry). The suspension was aliquoted and a portion was used to check the CFU count. The culture was stored frozen (−80° C.) and was used without subculture. For use as an inoculum the culture was thawed, diluted in PBS and kept in an ice bath until it was used.
Animals were infected as described by O'Reilly et al. (Antimicrobial Agents and Chemotherapy (1992), 36(12): 2693-97) to generate the bone infection. Female CD rats (age, 57 to 70 days; n=5/group; Charles River, St-Constant, Canada) were anaesthetized by isofluorane before and during the surgery. Following complete induction of anesthesia, the rat was placed ventral side up and hair was shaved from the surgical site. The skin over the leg was cleaned and disinfected (proviodine-ethanol 70%). A longitudinal incision below the knee joint was made in the sagital plane. The incision was made over the bone below the “knee joint” (tibia head or condyle) but not completely extending to the ankle. A high speed drill fitted with a 2 mm bulb bit was used to drill a hole into the medullar cavity of the tibia. Rats were injected intra-tibially with 0.05 ml 5% sodium morrhuate (sclerosing agent) and then with 0.05 ml of S. aureus suspension (ca. 2×10^7 CFU/rat). The hole was sealed by applying a small amount of dry dental cement which immediately absorbs fluids and adheres to the site. The wound was closed using 3 metal skin clips. Moxifloxacin (as a positive control) was injected once at 10 mg/kg intravenously 1 h postinfection in saline, while the Rifamycin derived prodrugs (prepared in 0.9% saline) were injected at the dose indicated in Table 3 as a single intravenous bolus at different time points prior to the infection.
Infected rats were sacrificed by CO2 asphyxiation 24 h postinfection to monitor the bacterial CFU count. Infected tibiae were removed, dissected free of soft tissue, and weighed. The bones were ground, resuspended in 5 ml 0.9% NaCl, serially diluted and processed for quantitative cultures. For compounds 50, 68 and 81, 1 ml of the 0.9% NaCl solution was added to 50 mg of charcoal before serial dilutions. Treatment efficacy was measured in terms of Log viable bacteria (Log CFU per gram of bone). […] The limit of detection is 2 Log CFU. […] Differences were considered significant when the P value was <0.05 when comparing treated infected animals to the untreated infected ones. The doses used, the amount of time separating the treatment from the time of infection and the treatment outcomes are shown in Table 3.

S. aureus ATCC 13709 [3] = assay: Antibacterial susceptibility (MIC), NCCLS broth microdilution; type: cell-based; conditions: for Antibacterial activity (in words, summary of Table 1): summary over the strains of Table 1
Description: (§1) Susceptibility of S. aureus strains to the known antibiotics and synthesized compounds was determined by following the guidelines set by NCCLS (M26-A). Compounds were diluted two-fold serially in DMSO and transferred to cation-adjusted Mueller Hinton broth (CAMHB; Becton Dickinson). 50 μL of compounds diluted in CAMHB was mixed with 100 μL of bacteria diluted in CAMHB in 96-well microtiter plates. The final concentration of micro-organisms in the assay was 5×10^5 c.f.u. per mL and the final concentration of DMSO in the assay was 1.25%. Assays were set up in duplicate and incubated at 37° C. for 18 h. The lowest concentration of compound that inhibited visible growth was reported as the minimum inhibitory concentration (MIC).

[4] = tested on: S. aureus BK85 (Fluoroquinolone resistant MRSA); assay: as above; type: cell-based
Description: as §1

[5] = tested on: S. aureus ATCC 43300 (Fluoroquinolone sensitive MRSA); assay: as above; type: cell-based
Description: as §1

S. aureus RN4220 = assay: as above; type: cell-based; conditions: CAMHB, 37° C., 18 h
Description: as §1

[6] = tested on: E. coli LBB925 (tolC mutant); assay: as above; type: cell-based; conditions: tolC mutant
S. aureus ATCC 13709 [7] = assay: Antibacterial susceptibility (MIC) in the presence of serum; type: cell-based
Description: as §1
Susceptibility testing experiments were also carried out in the presence of serum.
These experiments were carried out similar to the susceptibility testing with the following modifications. 75 μL of compounds diluted in CAMHB was mixed with 75 μL of bacteria diluted in 100% serum from any given source (commercial pooled mouse serum (MS) and human serum (HS), Equitech-Bio Inc.) or diluted in 8% purified human serum albumin (HSA) (Calbiochem). The final concentration of animal serum in the assay was 50% and the final concentration of purified human serum albumin in the assay was 4%; the concentrations of all other components were identical to those described for susceptibility testing.

[8] = tested on: S. aureus ATCC 13709 Novobiocin and Rifampicin resistant variant; assay: microbe, parasite or virus in culture; type: cell-based; conditions: for Minimum inhibitory concentration, S. aureus ATCC 13709 variant: Novobiocin and Rifampicin resistant variant
Description: as §1

Compound | Regeneration of parent drug once bound to bone (in words) [1] | % Conversion of bone-bound prodrug to parent drug ([1]; 50% Rat Serum) | % Conversion of bone-bound prodrug to parent drug ([1]; PBS) | Impact of the medium on the rate of regeneration of parent drug (in words) [1] | Prophylactic effect (in words) ([2]; rat bone infection, doses and times of Table 3, t-test p<0.05) | Measured bacterial titer ([2]; rat tibia 24 h postinfection, single dose 12 mg/kg parent drug equivalent, 1 day prior to infection) | Minimum inhibitory concentration, S. aureus ATCC 13709 (S. aureus ATCC 13709 [3]) | Minimum inhibitory concentration, S. aureus BK85 [4] | Minimum inhibitory concentration, S. aureus ATCC 43300 [5] | Minimum inhibitory concentration, S. aureus RN4220 (S. aureus RN4220) | Minimum inhibitory concentration, E. coli LBB925 [6] | Impact of serum on the MICs (in words) (S. aureus ATCC 13709 [7]) | Minimum inhibitory concentration, S. aureus ATCC 13709 + 50% Human Serum (S. aureus ATCC 13709 [7]) | Minimum inhibitory concentration, S. aureus ATCC 13709 + 50% Mouse Serum (S. aureus ATCC 13709 [7]) | Minimum inhibitory concentration, S. aureus ATCC 13709 + 50% Rat Serum (S. aureus ATCC 13709 [7]) | Antibacterial activity (in words, summary of Table 1) (S. aureus ATCC 13709 [3]) | Activity against the Rifampicin resistant variant of S. aureus ATCC13709 (in words) [8] | Minimum inhibitory concentration, S. aureus ATCC 13709 variant [8]
CO[C@H]1/C=C/O[C@@]2(C)Oc3c(C)c(O)c4c(c3C2=O)C2=NC3(CCN(CC(C)C)CC3)NC2=C(NC(=O)/C(C)=C\C=C\[C@H](C)[C@H](OC(=O)CNC(=O)CC(P(=O)(O)O)P(=O)(O)O)[C@@H](C)[C@@H](O)[C@@H](C)[C@H](OC(C)=O)[C@@H]1C)C4=O [Compound 21, 21-O-(N-(3,3-Bisphosphonopropanoyl)-glycinoyl)-1′,4-didehydro-1-deoxy-1,4-dihydro-5′-(2-methylpropyl)-1-oxorifamycin XIV] | not able to regenerate | 0.02% | <lod | not significantly impacted | lacks efficacy | 6.59 ± 0.90 Log CFU/g of bone | 16 µg/mL (≈ 14.3 µM) | 16 µg/mL (≈ 14.3 µM) | 16 µg/mL (≈ 14.3 µM) | 32 µg/mL (≈ 28.6 µM) | >128 µg/mL |  |  |  |  |  |  | 
CCN(CC)CC.CCN(CC)CC.CO[C@H]1/C=C/O[C@@]2(C)Oc3c(C)c(O)c4c(c3C2=O)C2=NC3(CCN(CC(C)C)CC3)NC2=C(NC(=O)/C(C)=C\C=C\[C@H](C)[C@H](OC(=O)CCC(=O)NC(P(=O)(O)O)P(=O)(O)O)[C@@H](C)[C@@H](O)[C@@H](C)[C@H](OC(C)=O)[C@@H]1C)C4=O [Compound 39, 21-O-(3-((bisphosphonomethyl)carbamoyl)propanoyl)-1′,4-didehydro-1-deoxy-1,4-dihydro-5′-(2-methylpropyl)-1-oxorifamycin XIV] | not able to regenerate |  |  |  |  |  | >128 µg/mL | >128 µg/mL | >128 µg/mL | >128 µg/mL | 128 µg/mL | no impact | >128 µg/mL | >128 µg/mL | 64 µg/mL | near complete loss of activity | complete lack of activity | >128 µg/mL
CO[C@H]1/C=C/O[C@@]2(C)Oc3c(C)c(O)c4c(=O)c(c5oc6cc(N7CCN(CC(C)C)CC7)cc(O)c6nc-5c4c3C2=O)NC(=O)/C(C)=C\C=C\[C@H](C)[C@H](OC(=O)COC(=O)CCC(=O)NC(P(=O)(O)O)P(=O)(O)O)[C@@H](C)[C@@H](O)[C@@H](C)[C@H](OC(C)=O)[C@@H]1C [Compound 84, 21-O-(2-((3-(bisphosphonomethyl)carbamoyl)propanoyloxy)acetyl)-1′,4-Didehydro-1-deoxy-1,4-dihydro-3′-hydroxy-5′-[4-(2-methylpropyl)-1-piperazinyl]-1-oxorifamycin VIII] | not able to regenerate | 0.12% | <lod | significant acceleration |  |  | 1 µg/mL (≈ 0.786 µM) | 1 µg/mL (≈ 0.786 µM) | 1 µg/mL (≈ 0.786 µM) | 1 µg/mL (≈ 0.786 µM) | >128 µg/mL |  | 16 µg/mL | 16 µg/mL | 1 µg/mL |  | complete lack of activity | >128 µg/mL
CCN(CC)CC.CCN(CC)CC.CO[C@H]1/C=C/O[C@@]2(C)Oc3c(C)c(O)c4c(c3C2=O)C2=NC3(CCN(CC(C)C)CC3)NC2=C(NC(=O)/C(C)=C\C=C\[C@H](C)[C@H](OC(=O)CCC(=O)NCCCC(=O)NC(P(=O)(O)O)P(=O)(O)O)[C@@H](C)[C@@H](O)[C@@H](C)[C@H](OC(C)=O)[C@@H]1C)C4=O [Compound 45, 21-O-(3-(3-((bisphosphonomethyl)carbamoyl)propylcarbamoyl)propanoyl)-1′,4-didehydro-1-deoxy-1,4-dihydro-5′-(2-methylpropyl)-1-oxorifamycin XIV] | not able to regenerate | 0.002% | <lod | not significantly impacted |  |  | 32 µg/mL | 64 µg/mL | 64 µg/mL | 64 µg/mL | >128 µg/mL | no impact | 64 µg/mL | 128 µg/mL |  | near complete loss of activity | complete lack of activity | >128 µg/mL
